# Laboratory results reported in ChEMBL document CHEMBL1201862, “PubChem BioAssay data set” (2004).
#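 Cultured in 96-well plates, cells were exposed to test compound for 48 hours across five concentrations. Abbreviation: GI50, concentration required for 50% inhibition of growth.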 The source made the active and inactive calls. Cut-off read from the data, not from the text of the source: active = GI50 up to about 1.1 µM and inactive = higher.
# How the values were obtained:
# Experiment in all cases: NCI anticancer screen, dose series, 48 h
# 786-0 = tested on: 786-0
# A498 = tested on: A498
# A549 = tested on: A549
# COLO 205 = tested on: COLO 205
# DU-145 = tested on: DU-145
# HCC 2998 = tested on: HCC 2998
# HCT-116 = tested on: HCT-116
# HCT-15 = tested on: HCT-15
# HL-60 = tested on: HL-60
# HOP-62 = tested on: HOP-62
# HOP-92 = tested on: HOP-92
# IGROV-1 = tested on: IGROV-1
# KM12 = tested on: KM12
# MCF7 = tested on: MCF7
# MOLT-4 = tested on: MOLT-4
# NCI-H226 = tested on: NCI-H226
# NCI-H460 = tested on: NCI-H460
# NCI/ADR-RES = tested on: NCI/ADR-RES
# PC-3 = tested on: PC-3
# SK-MEL-2 = tested on: SK-MEL-2
# SK-MEL-5 = tested on: SK-MEL-5
# SK-OV-3 = tested on: SK-OV-3
# SNB-19 = tested on: SNB-19
# SNB-75 = tested on: SNB-75
# SW-620 = tested on: SW-620
# TK-10 = tested on: TK-10
# U-251 = tested on: U-251
# UACC-62 = tested on: UACC-62
# UO-31 = tested on: UO-31
# ACHN = tested on: ACHN
# CAKI-1 = tested on: CAKI-1
# CCRF-CEM = tested on: CCRF-CEM
# EKVX = tested on: EKVX
# HT-29 = tested on: HT-29
# Hs-578T = tested on: Hs-578T
# K562 = tested on: K562
# LOX IMVI = tested on: LOX IMVI
# M14 = tested on: M14
# MDA-MB-231 = tested on: MDA-MB-231
# MDA-MB-435 = tested on: MDA-MB-435
# MDA-N = tested on: MDA-N
# Malme-3M = tested on: Malme-3M
# NCI-H23 = tested on: NCI-H23
# OVCAR-3 = tested on: OVCAR-3
# OVCAR-4 = tested on: OVCAR-4
# OVCAR-5 = tested on: OVCAR-5
# OVCAR-8 = tested on: OVCAR-8
# RPMI-8226 = tested on: RPMI-8226
# RXF 393 = tested on: RXF 393
# SF-268 = tested on: SF-268
# SF-295 = tested on: SF-295
# SF-539 = tested on: SF-539
# SK-MEL-28 = tested on: SK-MEL-28
# SN12C = tested on: SN12C
# SR = tested on: SR
# T47D = tested on: T47D
# UACC-257 = tested on: UACC-257
# NCI-H522 = tested on: NCI-H522
structure (smiles),measurement,setting,value
CN1C/C(=C\c2ccccc2[N+](=O)[O-])C(=O)/C(=C/c2ccccc2[N+](=O)[O-])C1,GI50,786-0,192 nM (active)
same,GI50,A498,1930 nM (inactive)
same,GI50,A549,3430 nM (inactive)
same,GI50,COLO 205,164 nM (active)
same,GI50,DU-145,1510 nM (inactive)
same,GI50,HCC 2998,1450 nM (inactive)
same,GI50,HCT-116,215 nM (active)
same,GI50,HCT-15,251 nM
same,GI50,HL-60,79.6 nM (active)
same,GI50,HOP-62,2950 nM (inactive)
same,GI50,HOP-92,1090 nM (active)
same,GI50,IGROV-1,442 nM (active)
same,GI50,KM12,1240 nM (inactive)
same,GI50,MCF7,408 nM (active)
same,GI50,MOLT-4,192 nM (active)
same,GI50,NCI-H226,3090 nM (inactive)
same,GI50,NCI-H460,2570 nM (inactive)
same,GI50,NCI/ADR-RES,1550 nM (inactive)
same,GI50,PC-3,1140 nM (inactive)
same,GI50,SK-MEL-2,2090 nM (inactive)
same,GI50,SK-MEL-5,1320 nM (inactive)
same,GI50,SK-OV-3,2750 nM (inactive)
same,GI50,SNB-19,6100 nM (inactive)
same,GI50,SNB-75,1860 nM (inactive)
same,GI50,SW-620,173 nM (active)
same,GI50,TK-10,893 nM (active)
same,GI50,U-251,1700 nM (inactive)
same,GI50,UACC-62,1310 nM (inactive)
same,GI50,UO-31,373 nM (active)
CN(C)CCNc1ccc([N+](=O)[O-])c2nc3ccccc3c(N)c12,GI50,786-0,535 nM (active)
same,GI50,A549,439 nM (active)
same,GI50,ACHN,313 nM (active)
same,GI50,CAKI-1,1840 nM (inactive)
same,GI50,CCRF-CEM,241 nM (active)
same,GI50,COLO 205,182 nM (active)
same,GI50,DU-145,804 nM (active)
same,GI50,EKVX,607 nM (active)
same,GI50,HCT-116,261 nM (active)
same,GI50,HCT-15,444 nM
same,GI50,HL-60,741 nM (active)
same,GI50,HOP-62,2260 nM (inactive)
same,GI50,HOP-92,547 nM (active)
same,GI50,HT-29,318 nM (active)
same,GI50,Hs-578T,3960 nM (inactive)
same,GI50,IGROV-1,456 nM (active)
same,GI50,K562,341 nM (active)
same,GI50,KM12,381 nM (active)
same,GI50,LOX IMVI,375 nM (active)
same,GI50,M14,574 nM (active)
same,GI50,MCF7,> 10000 nM (inactive)
same,GI50,MDA-MB-231,695 nM (active)
same,GI50,MDA-MB-435,615 nM (active)
same,GI50,MDA-N,585 nM (active)
same,GI50,MOLT-4,434 nM (active)
same,GI50,Malme-3M,443 nM (active)
same,GI50,NCI-H226,> 10000 nM (inactive)
same,GI50,NCI-H23,889 nM (active)
same,GI50,NCI-H460,318 nM (active)
same,GI50,NCI/ADR-RES,569 nM (active)
same,GI50,OVCAR-3,532 nM (active)
same,GI50,OVCAR-4,740 nM (active)
same,GI50,OVCAR-5,> 10000 nM (inactive)
same,GI50,OVCAR-8,792 nM (active)
same,GI50,PC-3,405 nM (active)
same,GI50,RPMI-8226,310 nM (active)
same,GI50,RXF 393,1050 nM (active)
same,GI50,SF-268,507 nM (active)
same,GI50,SF-295,711 nM (active)
same,GI50,SF-539,536 nM (active)
same,GI50,SK-MEL-28,3830 nM (inactive)
same,GI50,SK-MEL-2,1990 nM (inactive)
same,GI50,SK-MEL-5,1410 nM (inactive)
same,GI50,SK-OV-3,152 nM (active)
same,GI50,SN12C,783 nM (active)
same,GI50,SNB-19,895 nM (active)
same,GI50,SNB-75,841 nM (active)
same,GI50,SR,282 nM (active)
same,GI50,SW-620,297 nM (active)
same,GI50,T47D,480 nM (active)
same,GI50,TK-10,2530 nM (inactive)
same,GI50,U-251,703 nM (active)
same,GI50,UACC-257,2180 nM (inactive)
same,GI50,UACC-62,1150 nM (inactive)
same,GI50,UO-31,757 nM (active)
CC(NCc1c(O)ccc2ccc(=O)oc12)C(=O)O (stereo unspecified),GI50,786-0,> 100000 nM (inactive)
same,GI50,A549,> 100000 nM (inactive)
same,GI50,ACHN,> 100000 nM (inactive)
same,GI50,CAKI-1,> 100000 nM (inactive)
same,GI50,CCRF-CEM,> 100000 nM (inactive)
same,GI50,COLO 205,> 100000 nM (inactive)
same,GI50,DU-145,> 100000 nM (inactive)
same,GI50,EKVX,> 100000 nM (inactive)
same,GI50,HCC 2998,> 100000 nM (inactive)
same,GI50,HCT-116,> 100000 nM (inactive)
same,GI50,HCT-15,> 100000 nM
same,GI50,HL-60,> 100000 nM (inactive)
same,GI50,HOP-62,> 100000 nM (inactive)
same,GI50,HOP-92,> 100000 nM (inactive)
same,GI50,HT-29,> 100000 nM (inactive)
same,GI50,Hs-578T,> 100000 nM (inactive)
same,GI50,IGROV-1,> 100000 nM (inactive)
same,GI50,K562,> 100000 nM (inactive)
same,GI50,KM12,> 100000 nM (inactive)
same,GI50,LOX IMVI,> 100000 nM (inactive)
same,GI50,M14,> 100000 nM (inactive)
same,GI50,MCF7,> 100000 nM (inactive)
same,GI50,MDA-MB-231,> 100000 nM (inactive)
same,GI50,MDA-MB-435,> 100000 nM (inactive)
same,GI50,MDA-N,> 100000 nM (inactive)
same,GI50,MOLT-4,> 100000 nM (inactive)
same,GI50,Malme-3M,> 100000 nM (inactive)
same,GI50,NCI-H226,> 100000 nM (inactive)
same,GI50,NCI-H23,> 100000 nM (inactive)
same,GI50,NCI-H460,> 100000 nM (inactive)
same,GI50,NCI-H522,> 100000 nM (inactive)
same,GI50,NCI/ADR-RES,> 100000 nM (inactive)
same,GI50,OVCAR-3,> 100000 nM (inactive)
same,GI50,OVCAR-4,> 100000 nM (inactive)
same,GI50,OVCAR-5,> 100000 nM (inactive)
same,GI50,OVCAR-8,> 100000 nM (inactive)
same,GI50,PC-3,> 100000 nM (inactive)
same,GI50,RPMI-8226,> 100000 nM (inactive)
same,GI50,RXF 393,> 100000 nM (inactive)
same,GI50,SF-268,> 100000 nM (inactive)
same,GI50,SF-295,> 100000 nM (inactive)
same,GI50,SF-539,> 100000 nM (inactive)
same,GI50,SK-MEL-28,> 100000 nM (inactive)
same,GI50,SK-MEL-2,> 100000 nM (inactive)
same,GI50,SK-MEL-5,> 100000 nM (inactive)
same,GI50,SK-OV-3,> 100000 nM (inactive)
same,GI50,SN12C,> 100000 nM (inactive)
same,GI50,SNB-19,> 100000 nM (inactive)
same,GI50,SNB-75,> 100000 nM (inactive)
same,GI50,SR,> 100000 nM (inactive)
same,GI50,SW-620,> 100000 nM (inactive)
same,GI50,T47D,> 100000 nM (inactive)
same,GI50,TK-10,> 100000 nM (inactive)
same,GI50,U-251,> 100000 nM (inactive)
same,GI50,UACC-257,> 100000 nM (inactive)
same,GI50,UACC-62,> 100000 nM (inactive)
same,GI50,UO-31,> 100000 nM (inactive)
